T1: leucine aminopeptidase from Leishmania donovani (LdLAP) (Leishmania donovani, UniProt A0A3S7WXR2)
T1 sequence (A0A3S7WXR2 1-565): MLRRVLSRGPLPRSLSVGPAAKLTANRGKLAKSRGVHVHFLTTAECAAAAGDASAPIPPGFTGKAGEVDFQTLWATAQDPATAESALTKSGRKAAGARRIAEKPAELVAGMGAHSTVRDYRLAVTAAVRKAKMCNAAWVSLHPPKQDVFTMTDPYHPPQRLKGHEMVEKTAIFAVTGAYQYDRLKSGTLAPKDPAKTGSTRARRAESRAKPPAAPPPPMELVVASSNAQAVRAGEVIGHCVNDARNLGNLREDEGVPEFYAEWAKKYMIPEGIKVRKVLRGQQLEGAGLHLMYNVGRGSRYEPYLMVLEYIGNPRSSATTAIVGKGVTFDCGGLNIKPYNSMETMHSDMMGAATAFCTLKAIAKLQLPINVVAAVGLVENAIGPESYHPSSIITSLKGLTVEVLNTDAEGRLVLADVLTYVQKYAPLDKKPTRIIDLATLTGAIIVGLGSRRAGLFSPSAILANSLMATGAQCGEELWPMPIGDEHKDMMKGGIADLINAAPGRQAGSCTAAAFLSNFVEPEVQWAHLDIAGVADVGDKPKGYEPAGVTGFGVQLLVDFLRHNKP


Tests used:
[1] = molecular target: T1, leucine aminopeptidase from Leishmania donovani (LdLAP); test: Leu-AMC fluorogenic aminopeptidase assay with double-reciprocal plots; format: biochemical
purified protein = substrate: Cc1cc(=O)oc2cc(NC(=O)[C@@H](N)CC(C)C)ccc12; test: purified protein; settings: Mn(II)

Row | Ki [1] [nM] | Molecule | Km (purified protein) [µM] | kcat/Km (purified protein) [M⁻¹ s⁻¹]
1 | 2.7 | CCCCC[C@H](CC(=O)NO)C(=O)N[C@H](C(=O)N1CCC[C@H]1CO)C(C)C [actinonin] | – | –
2 | 4.38 | CC(C)C[C@H](NC(=O)[C@@H](O)[C@H](N)Cc1ccccc1)C(=O)O [bestatin] | – | –
3 | – | leucine aminopeptidase from Leishmania donovani (LdLAP) (Leishmania donovani) (protein) MLRRVLSRGPLPRSLSVGPAAKLTANRGKLAKSRGVHVHFLTTAECAAAAGDASAPIPPGFTGKAGEVDFQTLWATAQDPATAESALTKSGRKAAGARRIAEKPAELVAGMGAHSTVRDYRLAVTAAVRKAKMCNAAWVSLHPPKQDVFTMTDPYHPPQRLKGHEMVEKTAIFAVTGAYQYDRLKSGTLAPKDPAKTGSTRARRAESRAKPPAAPPPPMELVVASSNAQAVRAGEVIGHCVNDARNLGNLREDEGVPEFYAEWAKKYMIPEGIKVRKVLRGQQLEGAGLHLMYNVGRGSRYEPYLMVLEYIGNPRSSATTAIVGKGVTFDCGGLNIKPYNSMETMHSDMMGAATAFCTLKAIAKLQLPINVVAAVGLVENAIGPESYHPSSIITSLKGLTVEVLNTDAEGRLVLADVLTYVQKYAPLDKKPTRIIDLATLTGAIIVGLGSRRAGLFSPSAILANSLMATGAQCGEELWPMPIGDEHKDMMKGGIADLINAAPGRQAGSCTAAAFLSNFVEPEVQWAHLDIAGVADVGDKPKGYEPAGVTGFGVQLLVDFLRHNKP | 57.29 | 5820
